Test results from patent US20060069132A1, “Azolecarboxamide herbicides” (priority 2004, published 2006).

What was measured:
Assay in all cases: Test E pre-/postemergence herbicide test
[1] = system: hairy beggarticks; assay type: in vivo, Bidens radiata; settings: Preemergence
Method in brief: (§1)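 Test chemicals in a non-phytotoxic solvent mixture with surfactant applied preemergence to planted seeds and postemergence to plants 2 to 18 cm tall (1- to 4-leaf stage). After 12 to 14 days in the greenhouse, injury rated visually against untreated controls on a 0–100 scale (0 no effect, 100 complete control).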

[2] = system: bermudagrass; assay type: in vivo, Cynodon dactylon
Method in brief: as §1

[3] = system: Surinam grass; assay type: in vivo, Urochloa decumbens
Method in brief: as §1

[4] = system: johnsongrass; assay type: in vivo, Sorghum halepense
Method in brief: as §1

[5] = system: pitted morningglory; assay type: in vivo, Ipomoea lacunosa
Method in brief: as §1

[6] = system: barnyardgrass; assay type: in vivo, Echinochloa crus-galli
Method in brief: as §1

[7] = system: broadleaf signalgrass; assay type: in vivo, Brachiaria platyphylla
Method in brief: as §1

[8] = system: common groundsel; assay type: in vivo, Senecio vulgaris; settings: scale 0 to 100
Method in brief: as §1

[9] = system: annual bluegrass; assay type: in vivo, Poa annua
Method in brief: as §1

[10] = system: common mallow; assay type: in vivo, Malva sylvestris
Method in brief: as §1

[11] = 250 g ai/ha, scale 0 (no effect) to 100 (complete control)
[12] = 500 g ai/ha, scale 0 (no effect) to 100 (complete control)
[13] = Postemergence, 500 g ai/ha, scale 0 to 100
[14] = Postemergence, 250 g ai/ha, scale 0 to 100
[15] = Preemergence, 125 g ai/ha, scale 0 to 100
[16] = Preemergence, 250 g ai/ha, scale 0 (no effect) to 100 (complete control)
[17] = Preemergence, 375 g ai/ha, scale 0 (no effect) to 100 (complete control)
[18] = Preemergence, 500 g ai/ha, scale 0 (no effect) to 100 (complete control)
[19] = postemergence, 125 g ai/ha, scale 0 to 100
[20] = postemergence, 62 g ai/ha, scale 0 to 100
[21] = Preemergence, 62 g ai/ha, scale 0 to 100

**Q.** Which results are given for `CCn1nc(C(C)(C)C)cc1C(=O)Nc1cc(C(=S)N(C)C)ccc1F` [Compound 294]?
**A.** Plant response rating, Beggarticks, Hairy ([1]; 125 g ai/ha, scale 0 to 100): 100; Plant response rating, Beggarticks, Hairy [1, 11]: 100; Plant response rating, Beggarticks, Hairy ([1]; 375 g ai/ha, scale 0 (no effect) to 100 (complete control)): 100; Plant response rating, Beggarticks, Hairy [1, 12]: 100; Plant response rating, Bermudagrass [2, 13]: 75; Plant response rating, Bermudagrass [2, 14]: 75; Plant response rating, Bermudagrass [2, 15]: 90; Plant response rating, Bermudagrass [2, 16]: 95; Plant response rating, Bermudagrass [2, 17]: 95; Plant response rating, Bermudagrass [2, 18]: 95; Plant response rating, Bermudagrass [2, 19]: 50; Plant response rating, Bermudagrass [2, 20]: 20; Plant response rating, Surinam Grass [3, 13]: 85; Plant response rating, Surinam Grass [3, 14]: 80; Plant response rating, Surinam Grass [3, 15]: 95; Plant response rating, Surinam Grass [3, 17]: 100; Plant response rating, Surinam Grass [3, 18]: 100; Plant response rating, Surinam Grass [3, 19]: 70; Plant response rating, Surinam Grass [3, 20]: 30; Plant response rating, Johnsongrass [4, 13]: 90; Plant response rating, Johnsongrass [4, 14]: 80; Plant response rating, Johnsongrass [4, 15]: 30; Plant response rating, Johnsongrass [4, 16]: 75; Plant response rating, Johnsongrass [4, 17]: 85; Plant response rating, Johnsongrass [4, 18]: 85; Plant response rating, Johnsongrass [4, 19]: 70; Plant response rating, Johnsongrass [4, 20]: 40; Plant response rating, Morningglory [5, 13]: 20; Plant response rating, Morningglory [5, 14]: 20; Plant response rating, Morningglory [5, 15]: 10; Plant response rating, Morningglory [5, 16]: 10; Plant response rating, Morningglory [5, 17]: 40; Plant response rating, Morningglory [5, 18]: 70; Plant response rating, Morningglory [5, 19]: 10; Plant response rating, Morningglory [5, 20]: 0; Plant response rating, Barnyardgrass [6, 13]: 80; Plant response rating, Barnyardgrass [6, 14]: 75; Plant response rating, Barnyardgrass [6, 15]: 95; Plant response rating, Barnyardgrass [6, 16]: 95; Plant response rating, Barnyardgrass [6, 17]: 100; Plant response rating, Barnyardgrass [6, 18]: 100; Plant response rating, Barnyardgrass [6, 19]: 60; Plant response rating, Barnyardgrass [6, 20]: 40; Plant response rating, Signalgrass [7, 13]: 70; Plant response rating, Signalgrass [7, 14]: 50; Plant response rating, Signalgrass [7, 15]: 50; Plant response rating, Signalgrass [7, 16]: 70; Plant response rating, Signalgrass [7, 17]: 80; Plant response rating, Signalgrass [7, 18]: 80; Plant response rating, Signalgrass [7, 19]: 30; Plant response rating, Signalgrass [7, 20]: 30; Plant response rating, Groundsel ([8]; Postemergence, 250 g ai/ha): 90; Plant response rating, Groundsel ([8]; postemergence, 62 g ai/ha): 50; Plant response rating, Bluegrass [9, 13]: 95; Plant response rating, Bluegrass [9, 14]: 95; Plant response rating, Bluegrass [9, 15]: 95; Plant response rating, Bluegrass [9, 16]: 95; Plant response rating, Bluegrass [9, 17]: 95; Plant response rating, Bluegrass [9, 18]: 100; Plant response rating, Bluegrass [9, 19]: 95; Plant response rating, Bluegrass [9, 20]: 95; Plant response rating, Mallow [10, 13]: 100; Plant response rating, Mallow [10, 14]: 50; Plant response rating, Mallow [10, 15]: 40; Plant response rating, Mallow [10, 16]: 40; Plant response rating, Mallow [10, 18]: 80; Plant response rating, Mallow [10, 19]: 40; Plant response rating, Mallow [10, 20]: 20

**Q.** For `CCn1nc(C2(C)CC2)cc1C(=O)Nc1cc(C(=O)N(C)C)ccc1F` [Compound 299], which “Plant response rating, Beggarticks, Hairy” value ([1]; 62 g ai/ha, scale 0 to 100) is on record?
**A.** The value was 50.

**Q.** What about the “Plant response rating, Beggarticks, Hairy” value ([1]; 125 g ai/ha, scale 0 to 100) of the same compound?
**A.** Its value is 100.

**Q.** What about the “Plant response rating, Beggarticks, Hairy” value [1, 11] of the same compound?
**A.** Its value is 100.

**Q.** What about the “Plant response rating, Beggarticks, Hairy” value [1, 12] of the same compound?
**A.** The value was 100.

**Q.** And the “Plant response rating, Bermudagrass” value [2, 13]?
**A.** Its value is 80.

**Q.** What about the “Plant response rating, Bermudagrass” value [2, 14] of the same compound?
**A.** The value was 70.

**Q.** And the “Plant response rating, Bermudagrass” value [2, 21]?
**A.** The value was 80.

**Q.** And the “Plant response rating, Bermudagrass” value [2, 15]?
**A.** The value was 100.

**Q.** And the “Plant response rating, Bermudagrass” value [2, 16]?
**A.** The value was 100.

**Q.** What about the “Plant response rating, Bermudagrass” value [2, 18] of the same compound?
**A.** Its value is 95.

**Q.** What about the “Plant response rating, Bermudagrass” value [2, 19] of the same compound?
**A.** The value was 50.

**Q.** What about the “Plant response rating, Bermudagrass” value [2, 20] of the same compound?
**A.** Its value is 40.

**Q.** What about the “Plant response rating, Surinam Grass” value [3, 13] of the same compound?
**A.** The value was 90.

**Q.** And the “Plant response rating, Surinam Grass” value [3, 14]?
**A.** The value was 75.

**Q.** What about the “Plant response rating, Surinam Grass” value [3, 15] of the same compound?
**A.** The value was 95.

**Q.** And the “Plant response rating, Surinam Grass” value [3, 18]?
**A.** Its value is 100.

**Q.** What about the “Plant response rating, Surinam Grass” value [3, 19] of the same compound?
**A.** Its value is 75.

**Q.** And the “Plant response rating, Surinam Grass” value [3, 20]?
**A.** Its value is 70.

**Q.** What about the “Plant response rating, Johnsongrass” value [4, 13] of the same compound?
**A.** Its value is 85.

**Q.** What about the “Plant response rating, Johnsongrass” value [4, 14] of the same compound?
**A.** Its value is 85.

**Q.** And the “Plant response rating, Johnsongrass” value [4, 21]?
**A.** The value was 40.

**Q.** What about the “Plant response rating, Johnsongrass” value [4, 15] of the same compound?
**A.** The value was 60.

**Q.** What about the “Plant response rating, Johnsongrass” value [4, 16] of the same compound?
**A.** Its value is 80.

**Q.** And the “Plant response rating, Johnsongrass” value [4, 18]?
**A.** Its value is 100.

**Q.** What about the “Plant response rating, Johnsongrass” value [4, 19] of the same compound?
**A.** The value was 80.

**Q.** What about the “Plant response rating, Johnsongrass” value [4, 20] of the same compound?
**A.** Its value is 60.

**Q.** What about the “Plant response rating, Morningglory” value [5, 13] of the same compound?
**A.** Its value is 60.

**Q.** And the “Plant response rating, Morningglory” value [5, 14]?
**A.** Its value is 40.

**Q.** And the “Plant response rating, Morningglory” value [5, 21]?
**A.** Its value is 10.

**Q.** What about the “Plant response rating, Morningglory” value [5, 15] of the same compound?
**A.** Its value is 75.

**Q.** And the “Plant response rating, Morningglory” value [5, 16]?
**A.** The value was 90.

**Q.** And the “Plant response rating, Morningglory” value [5, 19]?
**A.** The value was 20.

**Q.** And the “Plant response rating, Morningglory” value [5, 20]?
**A.** Its value is 10.

**Q.** What about the “Plant response rating, Barnyardgrass” value [6, 13] of the same compound?
**A.** Its value is 80.

**Q.** And the “Plant response rating, Barnyardgrass” value [6, 14]?
**A.** Its value is 70.

**Q.** And the “Plant response rating, Barnyardgrass” value [6, 21]?
**A.** Its value is 60.

**Q.** And the “Plant response rating, Barnyardgrass” value [6, 15]?
**A.** Its value is 85.

**Q.** What about the “Plant response rating, Barnyardgrass” value [6, 16] of the same compound?
**A.** Its value is 95.

**Q.** What about the “Plant response rating, Barnyardgrass” value [6, 18] of the same compound?
**A.** Its value is 100.

**Q.** And the “Plant response rating, Barnyardgrass” value [6, 19]?
**A.** The value was 70.

**Q.** And the “Plant response rating, Barnyardgrass” value [6, 20]?
**A.** Its value is 40.

**Q.** And the “Plant response rating, Signalgrass” value [7, 13]?
**A.** Its value is 80.

**Q.** What about the “Plant response rating, Signalgrass” value [7, 14] of the same compound?
**A.** Its value is 70.

**Q.** And the “Plant response rating, Signalgrass” value [7, 21]?
**A.** The value was 60.

**Q.** What about the “Plant response rating, Signalgrass” value [7, 15] of the same compound?
**A.** The value was 80.

**Q.** And the “Plant response rating, Signalgrass” value [7, 16]?
**A.** Its value is 100.

**Q.** And the “Plant response rating, Signalgrass” value [7, 18]?
**A.** The value was 100.

**Q.** What about the “Plant response rating, Signalgrass” value [7, 19] of the same compound?
**A.** The value was 60.

**Q.** And the “Plant response rating, Signalgrass” value [7, 20]?
**A.** The value was 20.

**Q.** What about the “Plant response rating, Groundsel” value ([8]; Postemergence, 250 g ai/ha) of the same compound?
**A.** Its value is 100.

**Q.** And the “Plant response rating, Groundsel” value ([8]; postemergence, 125 g ai/ha)?
**A.** Its value is 70.

**Q.** And the “Plant response rating, Bluegrass” value [9, 13]?
**A.** Its value is 100.

**Q.** And the “Plant response rating, Bluegrass” value [9, 14]?
**A.** Its value is 80.

**Q.** And the “Plant response rating, Bluegrass” value [9, 21]?
**A.** The value was 85.

**Q.** What about the “Plant response rating, Bluegrass” value [9, 15] of the same compound?
**A.** Its value is 95.

**Q.** And the “Plant response rating, Bluegrass” value [9, 16]?
**A.** The value was 95.

**Q.** What about the “Plant response rating, Bluegrass” value [9, 18] of the same compound?
**A.** The value was 100.

**Q.** And the “Plant response rating, Bluegrass” value [9, 19]?
**A.** Its value is 70.

**Q.** And the “Plant response rating, Bluegrass” value [9, 20]?
**A.** Its value is 60.

**Q.** And the “Plant response rating, Mallow” value [10, 13]?
**A.** The value was 100.

**Q.** What about the “Plant response rating, Mallow” value [10, 14] of the same compound?
**A.** The value was 50.

**Q.** And the “Plant response rating, Mallow” value [10, 21]?
**A.** Its value is 50.

**Q.** And the “Plant response rating, Mallow” value [10, 15]?
**A.** The value was 75.

**Q.** What about the “Plant response rating, Mallow” value [10, 16] of the same compound?
**A.** The value was 95.

**Q.** And the “Plant response rating, Mallow” value [10, 18]?
**A.** Its value is 100.

**Q.** And the “Plant response rating, Mallow” value [10, 19]?
**A.** The value was 30.

**Q.** What about the “Plant response rating, Mallow” value [10, 20] of the same compound?
**A.** Its value is 10.
